Here are results for 1 substance from publication PMC9823356, “Inhibition of Cancer Cell Proliferation and Bacterial Growth by Silver(I) Complexes Bearing a CH3-Substituted Thiadiazole-Based Thioamide” (Molecules, 2023).

Test [1] relates to SKOV-3 ovarian cancer cells. Nature of the test: MTT cytostatic/cytotoxic assay. Type of test: cell-based, human. The conditions noted are these: SKOV-3, 48 h treatment. The protocol:
(§1) The cell lines were obtained from the American Type of Culture collection (ATCC), except HuP-T3 which was kindly donated from University of Crete, School of Medicine, Greece, and were grown in different culture medium according to the instructions.
(§2) For the determination of the cell viability, it was employed the MTT assay. Cells were plated in 96-well plate at a density of 1 × 10^4 cells/mL per well and maintained for 72 h at 37 °C in a 5% CO2 incubator and grown as monolayers. […] The viability of cultured cells was estimated by a (3-(4,5-imethylthiazol-2-yl)-2,5-diphenyltetrazolium bromide (MTT) metabolic assay as previously described.
(§3) In brief, MTT (Sigma, St Louis, Missouri, USA) was dissolved in PBS in a concentration of 5 mg/mL, filter sterilized, and stored at 4 °C. Then, 50 μL of stock solution was added to each culture and incubated for 3 h at 37 °C. Formazan crystals were solubilized by DMSO (100 μL). Absorbance of the converted dye was measured at a wavelength of 540 nm on ELISA reader (VersaMax Microplate Reader Orleans, USA). […] […] The percentage growth inhibition was calculated according to National Cancer Institute (NCI) as: {[(Tt72x) − (Ct24)]/[(Ct72) − (Ct24)]} × 100 for concentrations for which Tt72x>Ct24 and {(Tt72x) − (Ct24)]/(Ct24)} × 100 for concentrations for which Tt72x<Ct24. […] All experiments were carried out in triplicate. A significant difference was presumed to exist when p ≤ 0.05 (two tailed paired t test).

Test [2] concerns DMS114 small cell lung cancer cells. The test is described as follows: MTT cytostatic/cytotoxic assay. The conditions noted are these: DMS114, 48 h treatment. Type of test: cell-based, human. The procedure: as §1, §2, §3
Test [3] deals with calf-thymus (CT) DNA. The test is described as follows: CT DNA interaction by UV-visible spectroscopy. The conditions noted are these: upon addition of CT DNA.
Protocol: The UV-visible spectra of CT DNA solution (1.5 × 10^−4 M) were recorded in the presence of each compound at diverse [compound]/[DNA] mixing ratios (r).
Test [4] concerns EB–DNA conjugate (CT DNA). Nature of the test: EB-DNA competitive binding, fluorescence quenching. Details: species or system calf. The source says:
The potential EB-displacing ability of the compounds was studied by a stepwise addition of a compound’s solution into the EB–DNA solution. The resultant changes were monitored by recording the variation of fluorescence emission spectra with excitation wavelength at 540 nm. […] The Stern-Volmer constant (KSV, in M^−1) is used to evaluate the quenching efficiency for each compound according to the Stern-Volmer equation (Equation (2)):(2) Io/I=1+kqτ0[Q]=1+KSV[Q] where Io and I are the emission intensities of the EB–DNA solution in the absence and the presence of the quencher, respectively, [Q] is the concentration of the quencher, τo = the average lifetime of the emitting system without the quencher and kq = the quenching constant. KSV may be obtained from the Stern-Volmer plots by the slope of the diagram Io/I versus [Q]. Taking τo = 23 ns as the fluorescence lifetime of the EB–DNA system, the quenching constants (kq, in M^−1s^−1) of the compounds can be determined according to Equation (3):KSV = kqτo(3)

Where [5] appears, read: cytocidal/cytotoxic, read-out: IC50 (the source's name).

Turning to [Ag(mtdztH)(dppe)(NO3)]n [Compound 4], the LC50 in test [1] (setting [5]) is 2.3 ± 0.05 µM; in test [2] (setting [5]), 3.1 ± 0.05 µM. In addition, the GI50 in test [1] (growth inhibition) is 1 ± 0.02 µM; in test [2] (growth inhibition), 0.5 ± 0.04 µM. Further, the values for the TGI in test [1] (total growth inhibition) and in test [2] (total growth inhibition) were 2.0±0.03 μΜ and 1.0±0.05 μΜ, respectively. Further, the “percentage of hyper-/hypochromism ΔA/Aο” value in test [3] (DMSO solution, + hyperchromism, – hypochromism) is “–13%”. In test [3], the “hypochromism (intensity decrease) of absorption band at 272 nm” value is “up to 13%”. Also, the “EB-DNA Stern–Volmer constant KSV” value in test [4] is 5.68 (±0.20) × 10^4 M^−1. In addition, the “EB–DNA fluorescence quenching ΔI/Iο” value in test [4] (λex 540 nm) was found to be 27.6%.
